From patent US9309263B2, “Fused multi-cyclic sulfone compounds as inhibitors of beta-secretase and methods of use thereof” (AMGEN INC., priority 2013, dated 2016)
Like-named read-outs stand apart in the source and are kept apart here.

Key:
Cathepsin D (Cat D) = Cathepsin D (Cat D) (Homo sapiens, UniProt P07339); assay: In vitro enzymatic Cathepsin D (Cat D) FRET assay; format: biochemical
Method in brief: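 Recombinant CHO-expressed enzyme (9 nM) pre-incubated 1 h with serially diluted inhibitor in 0.05 M citrate pH 3.5, 10% DMSO final, 5 mM CHAPS. Reaction started with 20 nM FRET peptide substrate, run 1 h, stopped with Tris to neutral pH; fluorescence read at ex 500/em 580 nm.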

[1] = target: Beta Secretase enzyme (BACE) (Homo sapiens, UniProt P56817); assay: In vitro enzymatic BACE FRET assay; format: biochemical; conditions: read-out: BACE1 FRET assay IC50
Method in brief: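 Enzyme (0.2 nM) pre-incubated 1 h with serially diluted inhibitors in 0.05 M acetate pH 4.2, 10% DMSO, 100 uM genapol. Reaction started with 50 nM fluorophore/quencher peptide FRET substrate, run 1 h, stopped with Tris to neutral pH. Fluorescence read at excitation 488 nm, […].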

[2] = tested on: Aβ 40 in conditioned medium of cells stably expressing Amyloid Precursor Protein (APP); assay: In vitro BACE cell-based assay (Aβ 40 sandwich ELISA); conditions: Homo sapiens, HEK293
Method in brief: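 APP-expressing cells, 24 h pre-culture in DMEM/10% FBS, treated 24 h with 10-point compound dilutions from 100 or 10 μM top, 0.1% DMSO final. Secreted Aβ40 quantified by sandwich ELISA (pAb40 capture, biotinylated 6E10 detection, europium TRF); IC50 from percent inhibition versus concentration.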

[3] = Cathepsin D FRET assay, read-out: CatD IC50
[4] = average IC50, in vitro enzymatic BACE FRET assay
[5] = average IC50, HEK cell assay, Aβ 40 readout
[6] = text summary referring to data in Table 2

Sequence of Cathepsin D (Cat D) (P07339 65-412, species assumed): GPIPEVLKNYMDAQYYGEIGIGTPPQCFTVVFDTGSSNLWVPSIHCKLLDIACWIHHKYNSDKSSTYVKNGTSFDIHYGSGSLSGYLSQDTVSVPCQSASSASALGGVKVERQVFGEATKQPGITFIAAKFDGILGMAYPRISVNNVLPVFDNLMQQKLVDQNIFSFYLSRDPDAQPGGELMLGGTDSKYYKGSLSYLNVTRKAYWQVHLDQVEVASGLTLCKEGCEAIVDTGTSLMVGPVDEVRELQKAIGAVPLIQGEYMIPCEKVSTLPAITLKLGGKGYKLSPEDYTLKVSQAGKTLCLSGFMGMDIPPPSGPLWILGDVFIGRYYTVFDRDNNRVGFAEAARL
Sequence of Beta Secretase enzyme (BACE) (P56817 46-501): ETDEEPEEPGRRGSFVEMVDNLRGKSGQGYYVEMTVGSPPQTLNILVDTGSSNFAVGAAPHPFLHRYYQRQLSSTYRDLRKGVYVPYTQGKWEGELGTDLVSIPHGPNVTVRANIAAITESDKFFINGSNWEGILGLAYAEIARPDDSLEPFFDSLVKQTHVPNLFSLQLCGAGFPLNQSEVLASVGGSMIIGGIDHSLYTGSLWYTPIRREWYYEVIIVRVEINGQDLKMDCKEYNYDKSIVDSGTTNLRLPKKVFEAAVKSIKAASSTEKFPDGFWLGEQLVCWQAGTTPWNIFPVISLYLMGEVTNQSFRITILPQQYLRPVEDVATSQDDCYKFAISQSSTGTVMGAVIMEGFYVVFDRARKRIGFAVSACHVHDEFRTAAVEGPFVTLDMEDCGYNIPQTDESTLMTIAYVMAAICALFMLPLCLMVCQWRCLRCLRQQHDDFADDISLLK

Work on `C[C@H]1C[C@H]2[C@](CF)(N=C(N)C(C)(C)S2(=O)=O)c2cc(Nc3nccc4cc(C#N)cnc34)ccc2O1` [Example 109, 8-(((4aS,6S,11bS)-2-amino-11b-(fluoromethyl)-3,3,6-trimethyl-4,4-dioxido-4a,5,6,11b-tetrahydro-3H-[1]benzoxepino[4,5-b][1,4]thiazin-10-yl)amino)-1,7-naphthyridine-3-carbonitrile] yielded an IC50 (Cathepsin D (Cat D); [3]) greater than 400 µM, an IC50 [1, 4] of 0.003 µM and an IC50 [2, 5] of 0.008 µM.

For `Cc1nc(OCC(F)F)cnc1C(=O)Nc1ccc2c(c1)[C@@]1(C)N=C(N)C(C)(C)S(=O)(=O)[C@@H]1CCO2` [Example 91, N-((4aR,11bR)-2-amino-3,3,11b-trimethyl-4,4-dioxido-4a,5,6,11b-tetrahydro-3H-[1]benzoxepino[4,5-b][1,4]thiazin-10-yl)-5-(2,2-difluoroethoxy)-3-methyl-2-pyrazinecarboxamide], the IC50 (Cathepsin D (Cat D); [3]) was 1870 µM, the IC50 (Cathepsin D (Cat D); [6]) was greater than 1200 µM and the IC50 [1, 4] was 0.019 µM. It also gave an IC50 [2, 5] of 0.027 µM.

With `C[C@H]1C[C@@H]2[C@](C)(N=C(N)C(C)(C)S2(=O)=O)c2cc(NC(=O)c3cnc(Cl)cn3)ccc2O1` [Example 75, N-((4aR,6S,11bR)-2-amino-3,3,6,11b-tetramethyl-4,4-dioxido-4a,5,6,11b-tetrahydro-3H-[1]benzoxepino[4,5-b][1,4]thiazin-10-yl)-5-chloro-2-pyrazinecarboxamide] the IC50 (Cathepsin D (Cat D); read-out: CatD IC50) was 217 µM, the IC50 ([1]; average IC50) was 0.004 µM and the IC50 ([2]; HEK cell, average IC50) was 0.061 µM.

For `CC1(C)C(N)=N[C@]2(C)c3cc(NC(=O)c4ncc(Cl)cc4Cl)ccc3CCC[C@H]2S1(=O)=O` [Example 44, N-((4aR,11bR)-2-amino-3,3,11b-trimethyl-4,4-dioxido-3,4a,5,6,7,11b-hexahydrobenzo[3,4]cyclohepta[1,2-b][1,4]thiazin-10-yl)-3,5-dichloro-2-pyridinecarboxamide], the IC50 (Cathepsin D (Cat D); read-out: CatD IC50) was 541 µM, the IC50 ([1]; average IC50) was 0.005 µM and the IC50 ([2]; HEK cell, average IC50) was 0.016 µM.

With `CC1(C)C(N)=N[C@]2(C)c3cc(NC(=O)c4ccc(Cl)cn4)ccc3CCC[C@@H]2S1(=O)=O` [Example 38, N-((4aS,11bR)-2-amino-3,3,11b-trimethyl-4,4-dioxido-3,4a,5,6,7,11b-hexahydrobenzo[3,4]cyclohepta[1,2-b][1,4]thiazin-10-yl)-5-chloro-2-pyridinecarboxamide] the IC50 (Cathepsin D (Cat D); read-out: CatD IC50) was greater than 400 µM, the IC50 ([1]; average IC50) was 0.099 µM and the IC50 ([2]; HEK cell, average IC50) was 0.15 µM.

`COc1cnc(C(=O)Nc2ccc3c(c2)[C@@]2(C)N=C(N)C(C)(C)S(=O)(=O)[C@]2(F)CCO3)cn1` [Example 67, N-((4aR,11bR)-2-amino-4a-fluoro-3,3,11b-trimethyl-4,4-dioxido-4a,5,6,11b-tetrahydro-3H-[1]benzoxepino[4,5-b][1,4]thiazin-10-yl)-5-methoxy-2-pyrazinecarboxamide] gave an IC50 (Cathepsin D (Cat D); read-out: CatD IC50) of 2920 µM, an IC50 (Cathepsin D (Cat D); [6]) greater than 1200 µM and an IC50 ([1]; average IC50) of 0.022 µM. The IC50 ([2]; HEK cell, average IC50) was 0.115 µM.

Work on `CC1(C)C(N)=N[C@]2(C)c3cc(NC(=O)c4ccc(Cl)cn4)ccc3OCC[C@@]2(F)S1(=O)=O` [Example 66, N-((4aR,11bR)-2-amino-4a-fluoro-3,3,11b-trimethyl-4,4-dioxido-4a,5,6,11b-tetrahydro-3H-[1]benzoxepino[4,5-b][1,4]thiazin-10-yl)-5-chloro-2-pyridinecarboxamide] yielded an IC50 (Cathepsin D (Cat D); read-out: CatD IC50) of 269 µM, an IC50 ([1]; average IC50) of 0.008 µM and an IC50 ([2]; HEK cell, average IC50) of 0.089 µM.

With `Cc1cc(Cl)cnc1C(=O)Nc1ccc2c(c1)[C@@]1(C)N=C(N)C(C)(C)S(=O)(=O)[C@@H]1CCS2` [Example 114, N-((4aR,11bR)-2-amino-3,3,11b-trimethyl-4,4-dioxido-4a,5,6,11b-tetrahydro-3H-[1]benzothiepino[4,5-b][1,4]thiazin-10-yl)-5-chloro-3-methyl-2-pyridinecarboxamide] the IC50 (Cathepsin D (Cat D); [3]) was 292 µM, the IC50 [1, 4] was 0.001 µM and the IC50 [2, 5] was 0.012 µM.

Compound `CC1(C)C(N)=N[C@]2(C)c3cc(Nc4nccc5cc(Cl)cnc45)ccc3CCC[C@@H]2S1(=O)=O` [Example 34, (4aS,11bR)-N^~10^~-(3-chloro-1,7-naphthyridin-8-yl)-3,3,11b-trimethyl-3,4a,5,6,7,11b-hexahydrobenzo[3,4]cyclohepta[1,2-b][1,4]thiazine-2,10-diamine 4,4-dioxide] has an IC50 (Cathepsin D (Cat D); read-out: CatD IC50) of 409 µM, an IC50 ([1]; average IC50) of 0.071 µM and an IC50 ([2]; HEK cell, average IC50) of 0.464 µM.

With `Cc1cc(C(F)F)cnc1C(=O)Nc1ccc2c(c1)[C@@]1(C)N=C(N)C(C)(C)S(=O)(=O)[C@@H]1CCC2` [Example 40, N-((4aR,11bR)-2-amino-3,3,11b-trimethyl-4,4-dioxido-3,4a,5,6,7,11b-hexahydrobenzo[3,4]cyclohepta[1,2-b][1,4]thiazin-10-yl)-5-(difluoromethyl)-3-methyl-2-pyridinecarboxamide] the IC50 (Cathepsin D (Cat D); read-out: CatD IC50) was greater than 400 µM, the IC50 ([1]; average IC50) was 0.035 µM and the IC50 ([2]; HEK cell, average IC50) was 0.015 µM.

In the case of `Cc1cnc(COc2cnc3c(Nc4ccc5c(c4)[C@@]4(C)N=C(N)C(C)(C)S(=O)(=O)[C@@H]4C[C@H](C)O5)nccc3n2)o1` [Example 134, (4aR,6S,11bR)-3,3,6,11b-tetramethyl-N^~10^~-(2-((5-methyl-1,3-oxazol-2-yl)methoxy)pyrido[3,4-b]pyrazin-5-yl)-4a,5,6,11b-tetrahydro-3H-[1]benzoxepino[4,5-b][1,4]thiazine-2,10-diamine 4,4-dioxide], the IC50 (Cathepsin D (Cat D); [3]) is reported as greater than 44.4 µM, the IC50 [1, 4] is reported as 0.003 µM and the IC50 [2, 5] is reported as 0.003 µM.

`Cc1cc(OC(F)F)cnc1C(=O)Nc1ccc2c(c1)[C@@]1(C)N=C(N)C(C)(C)S(=O)(=O)[C@]1(F)CCO2` [Example 95, N-((4aR,11bR)-2-amino-4a-fluoro-3,3,11b-trimethyl-4,4-dioxido-4a,5,6,11b-tetrahydro-3H-[1]benzoxepino[4,5-b][1,4]thiazin-10-yl)-5-(difluoromethoxy)-3-methyl-2-pyridinecarboxamide] was tested, and the IC50 (Cathepsin D (Cat D); [3]) was 248 µM, the IC50 [1, 4] was 0.014 µM and the IC50 [2, 5] was 0.061 µM.

`Cc1cc(Cl)cnc1C(=O)Nc1ccc2c(c1)[C@@]1(C)N=C(N)C(C)(C)S(=O)(=O)[C@@]1(F)CCO2` [Example 87, N-((4aS,11bR)-2-amino-4a-fluoro-3,3,11b-trimethyl-4,4-dioxido-4a,5,6,11b-tetrahydro-3H-[1]benzoxepino[4,5-b][1,4]thiazin-10-yl)-5-chloro-3-methyl-2-pyridinecarboxamide] was tested, and the IC50 (Cathepsin D (Cat D); [3]) was 279 µM, the IC50 [1, 4] was 0.002 µM and the IC50 [2, 5] was 0.008 µM.

Compound `Cc1cc(C(F)(F)F)cnc1C(=O)Nc1ccc2c(c1)[C@@]1(CF)N=C(N)C(C)(C)S(=O)(=O)[C@@H]1CCO2` [Example 119, N-((4aR,11bS)-2-amino-11b-(fluoromethyl)-3,3-dimethyl-4,4-dioxido-4a,5,6,11b-tetrahydro-3H-[1]benzoxepino[4,5-b][1,4]thiazin-10-yl)-3-methyl-5-(trifluoromethyl)-2-pyridinecarboxamide] has an IC50 (Cathepsin D (Cat D); [3]) of 3360 µM, an IC50 [1, 4] of 0.024 µM and an IC50 [2, 5] of 0.019 µM.

`CC(C)Oc1cnc2c(Nc3ccc4c(c3)[C@@]3(CF)N=C(N)C(C)(C)S(=O)(=O)[C@@H]3CCO4)nccc2n1` [Example 150, (4aR,11bS)-11b-(fluoromethyl)-3,3-dimethyl-N^~10^~-(2-(1-methylethoxy)pyrido[3,4-b]pyrazin-5-yl)-4a,5,6,11b-tetrahydro-3H-[1]benzoxepino[4,5-b][1,4]thiazine-2,10-diamine 4,4-dioxide] was tested, and the IC50 (Cathepsin D (Cat D); [3]) was greater than 400 µM, the IC50 [1, 4] was 0.227 µM and the IC50 [2, 5] was 1.4 µM.

`CC1(C)C(N)=N[C@]2(C)c3cc(Nc4ncc(F)c5cc(C#N)cnc45)ccc3OCC[C@H]2S1(=O)=O` [Example 171, 8-(((4aR,11bR)-2-amino-3,3,11b-trimethyl-4,4-dioxido-4a,5,6,11b-tetrahydro-3H-[1]benzoxepino[4,5-b][1,4]thiazin-10-yl)amino)-5-fluoro-1,7-naphthyridine-3-carbonitrile] showed an IC50 (Cathepsin D (Cat D); read-out: CatD IC50) greater than 14.8 µM, an IC50 ([1]; average IC50) of 0.003 µM and an IC50 ([2]; HEK cells, average IC50) of 0.01 µM.

Work on `Cc1cc(OC(F)F)cnc1C(=O)Nc1ccc2c(c1)[C@@]1(C)N=C(N)C(C)(C)S(=O)(=O)[C@@H]1CCC2` [Example 41, N-((4aR,11bR)-2-amino-3,3,11b-trimethyl-4,4-dioxido-3,4a,5,6,7,11b-hexahydrobenzo[3,4]cyclohepta[1,2-b][1,4]thiazin-10-yl)-5-(difluoromethoxy)-3-methyl-2-pyridinecarboxamide] yielded an IC50 (Cathepsin D (Cat D); read-out: CatD IC50) of 5550 µM, an IC50 (Cathepsin D (Cat D); [6]) greater than 1200 µM and an IC50 ([1]; average IC50) of 0.018 µM. The IC50 ([2]; HEK cell, average IC50) was 0.005 µM.

Work on `Cc1cc(C(F)(F)F)cnc1C(=O)Nc1ccc2c(c1)[C@@]1(CF)N=C(N)C(C)(C)S(=O)(=O)[C@H]1C[C@H](C)O2` [Example 105, N-((4aS,6S,11bS)-2-amino-11b-(fluoromethyl)-3,3,6-trimethyl-4,4-dioxido-4a,5,6,11b-tetrahydro-3H-[1]benzoxepino[4,5-b][1,4]thiazin-10-yl)-3-methyl-5-(trifluoromethyl)-2-pyridinecarboxamide] yielded an IC50 (Cathepsin D (Cat D); [3]) of 1480 µM, an IC50 [1, 4] of 0.004 µM and an IC50 [2, 5] of 0.013 µM.

Work on `Cc1cc(Cl)cnc1C(=O)Nc1ccc2c(c1)[C@@]1(C)N=C(N)C(C)(C)S(=O)(=O)[C@@H]1CCS2(=O)=O` [Example 124, N-((4aR,11bR)-2-amino-3,3,11b-trimethyl-4,4,7,7-tetraoxido-4a,5,6,11b-tetrahydro-3H-benzo[6,7]thiepino[4,5-b][1,4]thiazin-10-yl)-5-chloro-3-methylpicolinamide] yielded an IC50 (Cathepsin D (Cat D); [3]) greater than 1.65 µM, an IC50 [1, 4] of 0.006 µM and an IC50 [2, 5] of 0.008 µM.
